The values that follow come from US20250257086A1, “EGFR DEGRADATION AGENT” (Beijing Tide Pharmaceutical Co., Ltd., priority 2022, published 2025).

Read-outs that look alike come from different tables or passages of the source.

Common to all, as to format: cell-based
Assay [1] addresses Ba/F3 (EGFR^L858R/T790M/C797S) cells (Homo sapiens, UniProt P00533, T790M/C797S/L858R, cells depend on it). Briefly: Antiproliferative activity on Ba/F3 (EGFR L858R/T790M/C797S) cells (CTG). The essentials: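 Luminescent CellTiter-Glo read-out on Ba/F3 cells carrying EGFR L858R/T790M/C797S. Inhibition normalised between untreated vehicle and a 10 μM positive drug. IC50 taken from a variable-slope four-parameter fit of inhibition against log compound concentration.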

Assay [2] relates to H1975 (EGFR^L858R/T790M) cells. Briefly: Antiproliferative activity on H1975 (EGFR L858R/T790M) cells (CTG). Particulars: Homo sapiens, read-out: IC50 (nM), antiproliferative activity. The procedure:
30 nL of the compound dilution was added to a 384-well plate by Echo (Labcyte, Echo550).
The percent inhibition rate (% inhibition) was calculated by the following formula
[formula] • LUMcmpd: Luminescence value of assay compound. • LUMpositive: Average LUM value of positive drug with a concentration of 10 μM. • LUMvehicle: Average LUM value of negative control group without drug treatment.
The nonlinear regression curve (dose response-variable slope) between the value of inhibition rate (%) and the logarithm of compound concentration was fitted with graphpad prism 8.0, the effect dose curve of compound was drawn, and the IC50 value was calculated.
Y=Bottom+(Top−Bottom)/(1+10^((Log IC50−X)*HillSlope)) • X-axis: logarithm of compound concentration; Y axis: inhibition rate (inhibition).

In assay [3] the target is T1, EGFR^L858R/T790M/C797S protein (Homo sapiens, UniProt P00533, C797S/L858R/T790M).
T1 construct: expressed in transfected cells; host or cells: Ba/F3 (EGFR^L858R/T790M/C797S) cells
T1 sequence (P00533 25-1210 T790M/C797S/L858R): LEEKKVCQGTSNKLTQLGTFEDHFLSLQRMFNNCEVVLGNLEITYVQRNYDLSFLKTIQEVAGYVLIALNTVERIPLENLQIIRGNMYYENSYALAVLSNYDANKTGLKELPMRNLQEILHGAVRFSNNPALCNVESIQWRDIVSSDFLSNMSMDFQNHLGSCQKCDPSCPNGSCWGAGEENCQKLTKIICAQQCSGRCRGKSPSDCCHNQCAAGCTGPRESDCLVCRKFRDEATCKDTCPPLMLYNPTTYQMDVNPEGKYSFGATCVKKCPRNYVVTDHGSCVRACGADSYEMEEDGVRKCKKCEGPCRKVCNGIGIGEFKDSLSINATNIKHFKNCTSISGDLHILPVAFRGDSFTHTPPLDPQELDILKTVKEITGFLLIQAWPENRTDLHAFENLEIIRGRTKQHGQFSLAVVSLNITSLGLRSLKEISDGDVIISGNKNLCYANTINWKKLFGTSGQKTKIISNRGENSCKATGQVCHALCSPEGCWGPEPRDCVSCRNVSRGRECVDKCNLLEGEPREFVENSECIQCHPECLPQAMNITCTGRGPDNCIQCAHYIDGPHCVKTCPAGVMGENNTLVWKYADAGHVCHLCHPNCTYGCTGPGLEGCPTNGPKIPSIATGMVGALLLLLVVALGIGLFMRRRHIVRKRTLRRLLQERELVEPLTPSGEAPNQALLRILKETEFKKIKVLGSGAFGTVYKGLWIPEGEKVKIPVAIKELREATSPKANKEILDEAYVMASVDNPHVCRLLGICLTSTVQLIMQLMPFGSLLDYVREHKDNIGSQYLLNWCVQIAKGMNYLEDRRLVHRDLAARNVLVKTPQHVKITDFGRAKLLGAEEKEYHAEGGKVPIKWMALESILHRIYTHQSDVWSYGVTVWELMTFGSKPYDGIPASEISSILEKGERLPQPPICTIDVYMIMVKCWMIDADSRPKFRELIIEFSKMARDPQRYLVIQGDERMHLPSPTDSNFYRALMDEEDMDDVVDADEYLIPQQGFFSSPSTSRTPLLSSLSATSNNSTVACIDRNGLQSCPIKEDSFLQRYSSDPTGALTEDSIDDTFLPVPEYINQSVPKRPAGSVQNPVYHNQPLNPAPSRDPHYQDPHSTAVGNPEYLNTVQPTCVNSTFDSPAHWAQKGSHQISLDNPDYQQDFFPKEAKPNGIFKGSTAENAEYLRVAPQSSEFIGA
The assay can be described thus: Induction of EGFR L858R/T790M/C797S protein degradation in Ba/F3 cells (Alpha counts). Particulars: 24h treatment; for degradation effect on EGFR^L858R/T790M/C797S protein (in words): FIG. 1 and 2; for DC50: range 1 nM to 1000 nM, FIG. 1 and 2, read-out: DC50, reduction of EGFR^L858R/T790M/C797S protein level. On the procedure:
(§1) Ba/F3 (EGFR^L858R/T790M/C797S) and Ba/F3 (EGFR^Del19/T790M/C797S) cells were cultured according to the culture conditions recommended by ATCC, and analyzed by index.
(§2) Culture conditions: incubated at 37° C., 95% air, 5% CO2 incubator.
(§3) (2) Compound Stock Solution: 10 mM Stock Solution in DMSO, Stored at −20° C.
(§4) The cells in the cell culture bottle were collected, and the cells with viability of >90% can be used in the assay. Cells were seeded in a 96-well plate with 40 μL cells, 1*10^5 cells/well.
(§5) The compounds were serially diluted 3× with DMSO, with the starting concentrations of the compounds being 1.0 mM (EGFR^L858R/T790M/C797S assay) and 10 mM (EGFR^Del19/T790M/C797S assay), respectively, into 10 concentrations to prepare working solutions.
(§6) (5) Compound was Pipetted into the 96-Well Plate to Treat Cells in a 37° C., 95% Air, 5% CO2 Incubator for 24h.
(§7) • 1) 1 μg/mL EGF stimulated cells for 10 min; • 2) After the compound treatment was completed, lysis buffer was added to lyse cells; 10 μL of cell lysate was transferred to the 384-well plate; in addition, control lysate, negative control and 5 μL of acceptor mix were added to the 384-well plate; The plate was shaken on a shaker for 1-2 min; • 3) 5 μL of donor mix was added to each well; the 384-well plate was sealed, shaken on a shaker for 1-2 min, and left in the dark at room temperature overnight; then the plate was read with ELISA reader.
(§8) Alpha counts were fitted by logarithmic treatment of compound concentration with Graphpad Prism 8.0.
(§9) [formula] • X: logarithm of compound concentration; Y: Alpha Counts.

In assay [4] the target is T2, EGFR^Del19/T790M/C797S protein (Homo sapiens, UniProt P00533, C797S/DEL746-750/T790M).
T2 construct: expressed in transfected cells; host or cells: Ba/F3 (EGFR^Del19/T790M/C797S) cells
T2 sequence (P00533 with tags, fused parts or gaps DEL746-750/T790M/C797S): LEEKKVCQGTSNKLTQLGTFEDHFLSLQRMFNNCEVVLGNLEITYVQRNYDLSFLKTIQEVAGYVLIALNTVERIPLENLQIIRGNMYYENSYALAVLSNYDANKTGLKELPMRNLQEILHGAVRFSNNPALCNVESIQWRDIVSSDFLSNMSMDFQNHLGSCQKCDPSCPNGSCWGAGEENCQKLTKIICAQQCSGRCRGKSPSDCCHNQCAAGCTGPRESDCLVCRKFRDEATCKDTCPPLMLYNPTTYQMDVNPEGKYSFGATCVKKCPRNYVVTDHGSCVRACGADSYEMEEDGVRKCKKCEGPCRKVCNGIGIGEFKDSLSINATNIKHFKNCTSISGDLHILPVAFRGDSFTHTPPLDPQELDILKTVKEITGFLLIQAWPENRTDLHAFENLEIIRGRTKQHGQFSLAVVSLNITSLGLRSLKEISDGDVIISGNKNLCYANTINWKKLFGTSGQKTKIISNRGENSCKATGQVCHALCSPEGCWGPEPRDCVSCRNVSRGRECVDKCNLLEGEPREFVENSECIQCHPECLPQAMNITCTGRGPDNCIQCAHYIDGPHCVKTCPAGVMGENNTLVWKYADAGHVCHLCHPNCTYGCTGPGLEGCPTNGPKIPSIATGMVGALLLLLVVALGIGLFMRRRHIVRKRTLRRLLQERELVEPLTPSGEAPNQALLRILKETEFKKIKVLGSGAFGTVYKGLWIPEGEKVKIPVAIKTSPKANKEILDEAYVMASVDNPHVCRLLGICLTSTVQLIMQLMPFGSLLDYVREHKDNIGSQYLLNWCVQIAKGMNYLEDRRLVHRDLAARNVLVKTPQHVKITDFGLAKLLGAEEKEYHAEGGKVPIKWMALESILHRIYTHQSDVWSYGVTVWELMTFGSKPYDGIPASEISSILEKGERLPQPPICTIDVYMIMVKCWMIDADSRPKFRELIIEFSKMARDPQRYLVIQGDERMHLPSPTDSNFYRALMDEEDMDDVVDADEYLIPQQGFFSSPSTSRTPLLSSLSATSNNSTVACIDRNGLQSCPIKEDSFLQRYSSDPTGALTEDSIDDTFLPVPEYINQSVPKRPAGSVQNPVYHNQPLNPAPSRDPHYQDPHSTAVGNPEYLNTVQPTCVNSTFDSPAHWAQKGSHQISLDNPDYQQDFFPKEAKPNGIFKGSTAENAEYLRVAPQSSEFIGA
The assay can be described thus: Induction of EGFR Del19/T790M/C797S protein degradation in Ba/F3 cells (Alpha counts). Particulars: 24h treatment; for degradation effect on EGFR^Del19/T790M/C797S protein (in words): FIG. 3; for DC50: range 1 nM to 10000 nM, FIG. 3, read-out: DC50, reduction of EGFR^Del19/T790M/C797S protein level. On the procedure:
as §1, §2, §3, §4, §5, §6, §7, §8, §9

The mark [5] stands for this setting: NCI-H1975, H1975 (EGFR^L858R/T790M) cells, 72h incubation, CTG luminescence.
The mark [6] stands for this setting: 72h incubation, CTG luminescence, read-out: IC50 (nM), antiproliferative activity.

Ba/F3 (EGFR^L858R/T790M/C797S) cells, sequence (P00533 whole entry T790M/C797S/L858R): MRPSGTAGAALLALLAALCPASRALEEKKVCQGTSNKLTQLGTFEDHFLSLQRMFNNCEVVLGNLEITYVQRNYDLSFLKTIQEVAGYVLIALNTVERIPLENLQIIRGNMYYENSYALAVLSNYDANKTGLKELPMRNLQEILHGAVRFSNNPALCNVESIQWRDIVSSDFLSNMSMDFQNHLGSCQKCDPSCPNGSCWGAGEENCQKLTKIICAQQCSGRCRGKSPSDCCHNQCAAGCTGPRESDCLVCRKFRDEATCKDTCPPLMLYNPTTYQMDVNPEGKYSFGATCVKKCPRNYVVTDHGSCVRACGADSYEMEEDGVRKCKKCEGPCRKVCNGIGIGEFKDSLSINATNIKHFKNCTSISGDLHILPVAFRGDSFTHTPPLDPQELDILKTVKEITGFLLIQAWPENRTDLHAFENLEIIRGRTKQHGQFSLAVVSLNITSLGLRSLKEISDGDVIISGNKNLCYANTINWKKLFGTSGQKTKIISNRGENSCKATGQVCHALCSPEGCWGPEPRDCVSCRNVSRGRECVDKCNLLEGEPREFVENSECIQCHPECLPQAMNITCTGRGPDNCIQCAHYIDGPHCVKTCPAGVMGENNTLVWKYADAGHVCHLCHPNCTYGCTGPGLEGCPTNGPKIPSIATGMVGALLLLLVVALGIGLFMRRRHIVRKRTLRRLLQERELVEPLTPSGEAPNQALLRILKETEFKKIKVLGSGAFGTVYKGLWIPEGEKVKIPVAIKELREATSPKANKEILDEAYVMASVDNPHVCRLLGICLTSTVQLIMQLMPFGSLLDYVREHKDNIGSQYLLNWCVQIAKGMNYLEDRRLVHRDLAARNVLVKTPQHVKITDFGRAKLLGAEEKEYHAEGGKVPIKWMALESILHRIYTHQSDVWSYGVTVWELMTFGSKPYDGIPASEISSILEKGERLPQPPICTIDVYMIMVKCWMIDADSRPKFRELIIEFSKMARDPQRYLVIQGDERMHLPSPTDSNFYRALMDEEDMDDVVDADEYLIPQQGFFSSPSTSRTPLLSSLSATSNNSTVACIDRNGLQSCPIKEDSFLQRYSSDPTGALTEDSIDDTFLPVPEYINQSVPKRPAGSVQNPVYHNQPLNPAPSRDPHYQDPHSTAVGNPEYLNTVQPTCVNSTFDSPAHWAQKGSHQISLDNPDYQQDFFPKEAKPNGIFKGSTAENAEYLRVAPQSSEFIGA

Take `COc1cc(N2CCC(N3CCN(C)CC3)CC2)ccc1Nc1ncc(Cl)c(Nc2ccccc2P(C)(C)=O)n1` [Brigatinib, reference compound]: the GI50 in assay [1] (read-out: IC50 (nM), antiproliferative activity, 72h incubation, CTG luminescence) was found to be 355 nM. Also, the IC50 in assay [2] (setting [5]) stood at 747 nM. Also, the “degradation effect on EGFR^L858R/T790M/C797S protein (in words)” value in assay [3] was “no degradation effect”.

Take `COc1cc(N2CCC(N3CCN(CCCC#Cc4cccc5c4CN(C4CCC(=O)NC4=O)C5=O)CC3)CC2)ccc1Nc1ncc(Cl)c(Nc2ccccc2P(C)(C)=O)n1` (centres unmarked) [Comparative compound C126]: the IC50 in assay [2] (setting [5]) was 1390 nM.

Regarding `C=C(F)C(=O)Nc1cc(Nc2ncc(Cl)c(Nc3ccccc3P(C)(C)=O)n2)c(OC)cc1N1CCC(N2CCN(C)CC2)CC1` [Comparative compound L527, reference compound], the GI50 in assay [1] (setting [6]) amounted to 458 nM. Also, in assay [3], the “degradation effect on EGFR^L858R/T790M/C797S protein (in words)” value is “no degradation effect”.

Turning to `CC#CC(=O)Nc1cc(Nc2ncc(Cl)c(Nc3ccccc3P(C)(C)=O)n2)c(OC)cc1N1CCC(N2CCN(CCCC#Cc3cccc4c3CN(C3CCC(=O)NC3=O)C4=O)CC2)CC1` (centres unmarked) [Compound D058, N-(5-((5-chloro-4-((2-(dimethylphosphoryl)phenyl)amino)pyrimidin-2-yl)amino)-2-(4-(4-(5-(2-(2,6-dioxopiperidin-3-yl)-1-oxoisoindolin-4-yl)pent-4-yn-1-yl)piperazin-1-yl)piperidin-1-yl)-4-methoxyphenyl)but-2-ynamide], the GI50 in assay [1] (setting [6]) worked out at 35.6 nM. Also, the IC50 in assay [2] (setting [5]) was 14.6 nM. In assay [4], the “degradation effect on EGFR^Del19/T790M/C797S protein (in words)” value is given as “significant degradation effects” and the DC50 is 25.1 nM.

Regarding `C=C(F)C(=O)Nc1cc(Nc2ncc(Br)c(Nc3ccccc3P(C)(C)=O)n2)c(OC)cc1N1CCC(N2CCN(CCCC#Cc3cccc4c3CN(C3CCC(=O)NC3=O)C4=O)CC2)CC1` (centres unmarked) [Compound D078, N-(5-((5-bromo-4-((2-(dimethylphosphoryl)phenyl)amino)pyrimidin-2-yl)amino)-2-(4-(4-(5-(2-(2,6-dioxopiperidin-3-yl)-1-oxoisoindolin-4-yl)pent-4-yn-1-yl)piperazin-1-yl)piperidin-1-yl)-4-methoxyphenyl)-2-fluoroacrylamide], in assay [1] (setting [6]), the GI50 is 19.2 nM. Besides, in assay [3], the “degradation effect on EGFR^L858R/T790M/C797S protein (in words)” value was “significant degradation effect” and the DC50 was found to be 84.7 nM.

In the case of `C=CC(=O)Nc1cc(Nc2ncc(Br)c(Nc3ccccc3P(C)(C)=O)n2)c(OC)cc1N1CCC(N2CCN(CCCC#Cc3cccc4c3CN(C3CCC(=O)NC3=O)C4=O)CC2)CC1` (centres unmarked) [Compound D478, N-(5-((5-bromo-4-((2-(dimethylphosphoryl)phenyl)amino)pyrimidin-2-yl)amino)-2-(4-(4-(5-(2-(2,6-dioxopiperidin-3-yl)-1-oxoisoindolin-4-yl)pent-4-yn-1-yl)piperazin-1-yl)piperidin-1-yl)-4-methoxyphenyl)acrylamide], in assay [1] (setting [6]), the GI50 came out at 30.3 nM. For the same compound, the 50% inhibitory concentration (IC50) in assay [2] (setting [5]) turned out to be 17.6 nM.

Take `C=C(F)C(=O)Nc1cc(Nc2ncc(Cl)c(Nc3ccccc3P(C)(C)=O)n2)c(OC)cc1N1CCC(N2CCN(CCCC#Cc3cccc4c3CN(C3CCC(=O)NC3=O)C4=O)CC2)CC1` (centres unmarked) [Compound D552, N-(5-((5-chloro-4-((2-(dimethylphosphoryl)phenyl)amino)pyrimidin-2-yl)amino)-2-(4-(4-(5-(2-(2,6-dioxopiperidin-3-yl)-1-oxoisoindolin-4-yl)pent-4-yn-1-yl)piperazin-1-yl)piperidin-1-yl)-4-methoxyphenyl)-2-fluoroacrylamide]: the GI50 in assay [1] (setting [6]) was determined as 37.3 nM. In addition, in assay [3], the “degradation effect on EGFR^L858R/T790M/C797S protein (in words)” value was “significant degradation effect” and the DC50 came to 117 nM. Moreover, in assay [4], the “degradation effect on EGFR^Del19/T790M/C797S protein (in words)” value is “significant degradation effects” and the DC50 was 29.7 nM.

With `CCCC#CC(=O)Nc1cc(Nc2ncc(Br)c(Nc3ccccc3P(C)(C)=O)n2)c(OCC(F)(F)F)cc1N1CCC(N2CCN(CCCC#Cc3cccc4c3CN(C3CCC(=O)NC3=O)C4=O)CC2)CC1` (centres unmarked) [Compound D856, N-(5-((5-bromo-4-((2-(dimethylphosphoryl)phenyl)amino)pyrimidin-2-yl)amino)-2-(4-(4-(5-(2-(2,6-dioxopiperidin-3-yl)-1-oxoisoindolin-4-yl)pent-4-yn-1-yl)piperazin-1-yl)piperidin-1-yl)-4-(2,2,2-trifluoroethoxy)phenyl)hex-2-ynamide], in assay [1] (setting [6]), the GI50 was 27.4 nM.

Take `C=C(F)C(=O)Nc1cc(Nc2ncc(C(F)(F)F)c(Nc3ccccc3P(C)(C)=O)n2)c(OCC(F)(F)F)cc1N1CCC(N2CCN(CCCC#Cc3cccc4c3CN(C3CCC(=O)NC3=O)C4=O)CC2)CC1` (centres unmarked) [Compound D870, N-(5-((4-((2-(dimethylphosphoryl)phenyl)amino)-5-(trifluoromethyl)pyrimidin-2-yl)amino)-2-(4-(4-(5-(2-(2,6-dioxopiperidin-3-yl)-1-oxoisoindolin-4-yl)pent-4-yn-1-yl)piperazin-1-yl)piperidin-1-yl)-4-(2,2,2-trifluoroethoxy)phenyl)-2-fluoroacrylamide]: the GI50 in assay [1] (setting [6]) turned out to be 8.87 nM.

In the case of `COc1cc(N2CCC(N3CCN(CCCC#Cc4cccc5c4CN(C4CCC(=O)NC4=O)C5=O)CC3)CC2)c(C)cc1Nc1ncc(Br)c(Nc2ccc3nccnc3c2N(C)S(C)(=O)=O)n1` (centres unmarked) [Compound D932], the GI50 in assay [1] (setting [6]) was 36.7 nM.

Consider `C=C(F)C(=O)Nc1cc(Nc2ncc(Br)c(Nc3ccc4nccnc4c3NS(C)(=O)=O)n2)c(OC)cc1N1CCC(N2CCN(CCCC#Cc3cccc4c3CN(C3CCC(=O)NC3=O)C4=O)CC2)CC1` (centres unmarked) [Compound D933], for which the GI50 in assay [1] (setting [6]) amounted to 12.3 nM.

With `C=C(F)C(=O)Nc1cc(Nc2ncc(Br)c(Nc3ccc4nccnc4c3N(C)S(C)(=O)=O)n2)c(OC)cc1N1CCC(N2CCN(CCCC#Cc3cccc4c3CN(C3CCC(=O)NC3=O)C4=O)CC2)CC1` (centres unmarked) [Compound D934], the GI50 in assay [1] (setting [6]) stood at 31.9 nM.

Regarding `C=CC(=O)Nc1cc(Nc2nccc(-c3cn(C)c4ccccc34)n2)c(OC)cc1N(C)CCN(C)C` [Osimertinib], in assay [2] (NCI-H1975, 72 h), the IC50 worked out at 10.7 nM.
